# Experimental data published in publication PMC10906223 (JCI Insight, 2024).
# Several values for one entry are separate records, joined by “and”; a condition that tells them apart may be missing. Identical values can stand only once.
# Assays:
# [1] = test system: murine dispersed islet cells; experiment: Glucagon secretion from murine dispersed islet cells; format: cell-based, mouse; conditions: for Relative secretion of glucagon: one value per mouse
# Experimental: Pancreata of nondiabetic C57BL/6J mice were digested using collagenase P (Roche Diagnostics, catalog 11213873001), and islets were manually picked up using a stereomicroscope (ZEISS Stemi 305). […] Isolated mouse islets or provided human islets were dispersed as described ([28]). Briefly, 100–120 islets were washed 2 times using modified HBSS, then dispersed in 600 μL Accutase (Innovative Cell Technologies, catalog AT-104) by gently pipetting up and down for 7 minutes at 37°C. […] Following refreshing of KRBH, cells were dispensed in 8 microfuge tubes (2,000 cells/tube) and treated with WCDD301, preclustered Ephrin-A5 Fc, or preclustered Fc in the presence or absence of the competitive inhibitor of EphA4 receptor, rhyncophylline ([60]) (MilliporeSigma, catalog SML2345). In the presence or absence of these effectors, secretion assay was performed sequentially as shown in Supplemental Table 5. […] Preclustering of Ephrin-A5 Fc was done by mixing Ephrin-A5 Fc or Fc alone (BioLegend, catalog 790102) with anti-Fc antibody (Invitrogen, catalog A16086) (1:10 molar ratio) 20 minutes before treatment ([62]). […] Shedding of cleaved EphA4 was measured from the cell culture medium. Experiments were performed by dispersion of 200 islets, and EphA4 levels in media were measured by EphA4 ELISA (ABclonal, catalog RK06572).
# [2] = test system: α cells of NOD mice islets; experiment: F-actin signal in α cells of pancreatic slices of NOD mice; format: in vivo, mouse; conditions: WCDD301-treated NOD mice; diabetic 47.14 ± 4.70, nondiabetic 79.14 ± 4.63
# Experimental: (§1) Pancreata of NOD mice (females, n = 3 per group) from nondiabetic, diabetic placebo-treated, and diabetic WCDD301-treated cohorts were excised; fixed in 10% buffered formalin for 5 days; and treated with ethanol 70% for 2 days before paraffin embedding. The paraffin-embedded tissue blocks were longitudinally sectioned in 5 μm slices and fixed on microscope slides. Following deparaffinization (through incubation in graded xylene, graded ethanol, and PBS), permeabilization (using 0.1% Triton X-100 in PBS), and background blocking (using 5% BSA solution containing 0.1% Tween 20), samples were incubated with primary antibodies (mouse anti-glucagon, Abcam, catalog ab10988; above-mentioned rabbit anti-EphA4), secondary antibodies (goat anti-mouse IgG Alexa Fluor 488; Invitrogen, catalog A-11001; goat anti-rabbit IgG Alexa Fluor 633, Invitrogen, catalog A-21070), SPY555-Actin (Cytoskeleton, catalog SC202), and DAPI. Image acquisition and analysis were performed as for dispersed islet cells. […] ROIs were manually drawn around each islet, background signal was removed by thresholding, and intensity of glucagon signal was determined and normalized by the islet surface area. To determine sizes of α cells per islet, ROIs were manually drawn around α cells in each islet. […]
# [3] = test system: α cells of NOD mice islets; experiment: EphA4 signal in α cells of pancreatic slices of NOD mice; format: in vivo, mouse; conditions: WCDD301-treated NOD mice; diabetic 12.64 ± 1.12, nondiabetic 18.62 ± 1.09
# Experimental: as §1
# [4] = Microsomal stability assay, human liver microsomes; format: in vitro ADME; conditions: for Remaining in hepatic microsomes (100 at 0 min): human microsomes, Figure 5C
# Experimental: A total of 445 μL of the working solution was transferred into prewarmed incubation plates for treated (T60) and control (NCF60) measurements. After preincubation (10 minutes at 37°C with constant shaking), 54 μL was transferred to the blank plate, followed by 6 μL of NADPH and 180 μL quenching solution. In parallel, 5 μL of WCDD301 (100 μM) was added into incubation plates (T60 and NCF60) containing microsomes and mixed thoroughly (3 times). For the NCF60 plate, 50 μL of buffer was added, mixed (thoroughly, 3 times), shaken, and incubated at 37°C for 60 minutes. In the quenching plate T0, quenching solution (180 μL) and NADPH cofactor (6 μL) were added. For T60 plate, 54 μL of the mixture was placed into the quenching plate (for T0 point), followed by adding 44 μL NADPH cofactor with shaking incubation at 37°C for 60 minutes. Quenching solution (180 μL) was added to quenching plates at 5, 15, 30, 45, and 60 minutes, and 60 μL of sample was transferred from T60 plate per time point to the quenching plates. For the NCF60 plates, 60 μL sample from the NCF60 incubation plate was transferred to the quenching plate (containing quenching solution) at the 60-minute time point. After plates were shaken for 10 minutes and centrifuged (1,750g, 20 minutes at 4°C), 80 μL of the supernatant was transferred into 240 μL HPLC water for LC-MS/MS analysis. The following first-order kinetic equation was used to calculate half-life (T1/2): [drawing 3]; when
# Then, intrinsic clearance [CLint (microsomal; mic)] and hepatic clearance [CLint (liver)] were predicted using the following equations ([66]): […]
structure (smiles),measurement,setting,value
"CC(=O)OCC(N)(COC(C)=O)COC(C)=O [WCDD301, 2-(acetoxymethyl)-2-aminopropane-1,3-diyl diacetate]",Effect on arginine-stimulated glucagon secretion,"[1]; 1 mM and 11 mM glucose, Arg 25 mM, 301 3 µM, E 4 µg/mL, Supplemental Figure 2",its effect was suppressed
same,Effect on glucagon secretion,"[1]; 11 mM glucose, Figure 1F",suppressed glucagon secretion
same,Secretion of glucagon,"[1]; 301 (1.5 µM) + Rhy (2.5 µM), Glucose (1 mM), Figure 1H",1.25 and 1.09 and 1.1 and 1.05 and 1
same,Secretion of glucagon,"[1]; 301 (1.5 µM) + Rhy (2.5 µM), Glucose (11 mM), Figure 1H",0.64 and 0.69 and 0.7 and 0.75 and 0.72
same,Relative secretion of glucagon,"[1]; 301 (1.5 µM), Glucose (1 mM), Figure 1F",0.81 and 0.78 and 0.75 and 0.68 and 0.86
same,Relative secretion of glucagon,"[1]; 301 (1.5 µM), Glucose (11 mM), Figure 1F",0.91 and 0.85 and 1.05 and 0.78 and 1.01
same,Secretion of glucagon,"[1]; 301 (3 µM) + Rhy (2.5 µM), Glucose (1 mM), Figure 1H",0.87 and 0.81 and 0.9 and 0.85 and 0.8
same,Secretion of glucagon,"[1]; 301 (3 µM) + Rhy (2.5 µM), Glucose (11 mM), Figure 1H",0.41 and 0.5 and 0.46 and 0.45 and 0.48
same,Relative secretion of glucagon,"[1]; 301 (3 µM), Glucose (1 mM), Figure 1F",0.89 and 0.7 and 0.75 and 0.68
same,Relative secretion of glucagon,"[1]; 301 (3 µM), Glucose (11 mM), Figure 1F",0.83 and 0.75 and 0.7 and 0.8 and 0.87
same,Glucagon secretion in presence of rhyncophylline,"[1]; WCDD301 3 μM, Figure 1H",outcompeted the inhibitor
same,F-actin signal within α cells,[2],74.50 ± 4.80 AU
same,EphA4 signal within α cells,[3],21.84 ± 1.14 AU
same,Microsomal stability in human versus mouse preparation,[4]; human higher than mouse,> 1.5 fold
same,Remaining in hepatic microsomes (100 at 0 min),[4]; 5 min,86.1
same,Remaining in hepatic microsomes (100 at 0 min),[4]; 15 min,78
same,Remaining in hepatic microsomes (100 at 0 min),[4]; 30 min,77.8
same,Remaining in hepatic microsomes (100 at 0 min),[4]; 45 min,77.5
same,Remaining in hepatic microsomes (100 at 0 min),[4]; 60 min,72.4
same,half-life at 1 µM,"[4]; human, liver microsomes",> 145 min
same,microsomal CLint at 1 µM,"[4]; human, liver microsomes, read-out: Intrinsic microsomal clearance",< 9.6 µL/min/mg
same,Hepatic clearance,"[4]; human, predicted from microsomal data",< 8.6 mL/min/kg
